Blank lines part the entries; values can stand above or below the molecule they belong to. The source made the active and inactive calls.
Experiments:
[1] = non-specific 3'UTR reporter inhibition in Clone20-Shn3RL – cell-based, Renilla luciferase, cherry-picked, counter-screen for Shn3 inhibitor project, dose response (AID 624133); assay type: functional
[2] = reduction of Shn3 3'UTR-driven luciferase in osteoblasts – cell-based, Clone20 osteoblasts, firefly luciferase, cherry-picked, dose response (AID 624132); assay type: functional;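 further: firefly luciferase luminescence from reporter carrying the Shn3 3'UTR in osteoblasts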
[3] = Trypanosoma cruzi growth suppression in host cells – NIH3T3 host cells, beta-gal luminescence, confirmation (AID 2044); assay type: functional, cell-based;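 further: intracellular parasites grown in NIH/3T3 mouse fibroblasts as host cells; luminescent beta-galactosidase reporter signal from transgenic T. cruzi replicating inside host cells; inhibitors lower the luminescence signal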
[4] = NIH3T3 cell viability loss – ATP luminescence, mouse fibroblasts, counter-screen, dose response (AID 2010); assay type: functional, cell-based;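 further: cells exposed to compound for about 90 hours before reading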
INS1 = assay: INS-1E survival protection against cytokine death – cell-based, luminescence, retest, dose response (AID 449756); assay type: functional; settings: Rattus norvegicus;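 further: cell death triggered by IL-1 beta plus TNF-alpha plus IFN-gamma mixture; protective hits raise ATP signal compared with cytokine alone wells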
[5] = target: T1, COUP transcription factor 2 (Homo sapiens, UniProt P24468); assay: Luminescence-based cell-based high throughput dose response assay to identify inhibitors of COUP-TFII (NR2F2).; assay type: functional;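 further: HEK293 cells transiently cotransfected with COUP-TFII expression vector and reporter; luciferase reporter luminescence driven by COUP-TFII from the pX2-168 reporter plasmid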
T1 sequence (P24468 whole entry): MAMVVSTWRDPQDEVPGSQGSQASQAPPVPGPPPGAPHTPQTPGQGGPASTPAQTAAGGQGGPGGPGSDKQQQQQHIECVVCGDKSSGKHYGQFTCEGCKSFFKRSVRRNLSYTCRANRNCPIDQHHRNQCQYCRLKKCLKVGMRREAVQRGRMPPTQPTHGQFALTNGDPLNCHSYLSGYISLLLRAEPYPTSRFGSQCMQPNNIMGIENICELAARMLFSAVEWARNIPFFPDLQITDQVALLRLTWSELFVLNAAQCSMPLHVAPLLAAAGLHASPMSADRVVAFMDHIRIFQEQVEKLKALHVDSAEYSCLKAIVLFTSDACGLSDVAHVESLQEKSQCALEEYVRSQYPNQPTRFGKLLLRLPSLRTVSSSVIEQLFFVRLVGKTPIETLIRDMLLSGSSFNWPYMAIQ

[6] = loss of viability in HepG2 cells – cell-based, CellTiter-Glo, cherry-picked, cytotoxicity control for Shn3 inhibitor project, dose response (AID 624134); assay type: functional
[7] = HEK-293T viability loss after treatment – luminescence, T-cell screen hits, cytotoxicity control for TCR NF-kB inhibitor project, dose response (AID 489026); assay type: functional, cell-based;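 further: cells exposed to compound about 14 hours before the viability readout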
[8] = target: 72 kDa type IV collagenase (Homo sapiens, UniProt P08253); assay: Dose Response validation of uHTS RPN11 inhibitor hits using a MMP-2 Fluorescence assay.; assay type: functional
72 kDa type IV collagenase, sequence (P08253 whole entry): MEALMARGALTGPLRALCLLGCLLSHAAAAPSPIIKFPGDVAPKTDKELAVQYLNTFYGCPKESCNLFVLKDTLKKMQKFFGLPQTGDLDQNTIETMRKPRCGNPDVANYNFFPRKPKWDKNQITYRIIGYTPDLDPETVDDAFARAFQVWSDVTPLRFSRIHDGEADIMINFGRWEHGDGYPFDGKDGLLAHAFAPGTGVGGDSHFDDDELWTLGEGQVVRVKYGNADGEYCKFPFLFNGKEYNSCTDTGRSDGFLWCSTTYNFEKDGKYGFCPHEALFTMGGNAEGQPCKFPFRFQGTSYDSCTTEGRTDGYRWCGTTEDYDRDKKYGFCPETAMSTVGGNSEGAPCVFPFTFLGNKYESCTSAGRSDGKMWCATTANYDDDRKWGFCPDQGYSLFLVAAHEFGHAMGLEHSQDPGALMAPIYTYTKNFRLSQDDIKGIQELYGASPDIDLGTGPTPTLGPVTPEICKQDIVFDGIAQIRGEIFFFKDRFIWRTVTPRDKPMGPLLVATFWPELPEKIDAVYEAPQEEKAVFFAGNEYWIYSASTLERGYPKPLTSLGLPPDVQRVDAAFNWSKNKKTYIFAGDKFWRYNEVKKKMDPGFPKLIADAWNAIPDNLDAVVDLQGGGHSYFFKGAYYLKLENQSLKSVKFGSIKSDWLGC

Prothrombin = Prothrombin (Bos taurus, UniProt P00735); assay: thrombin protease inhibitors – biochemical, fluorescence polarization, uHTS hits, dose response (AID 602369); assay type: functional
[9] = NIH-3T3 fibroblast cytotoxicity, dose response, cytotoxicity control, cell-based, fluorescence, Alamar Blue, secondary assay (AID 2327); assay type: functional;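 further: NIH-3T3 mouse fibroblasts cultured with fluconazole at 8 µg/mL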
[10] = fluconazole-exposed Candida albicans growth modulators – fluorescence, retest, confirmation (AID 2467); assay type: functional, cell-based
[11] = target: 26S proteasome non-ATPase regulatory subunit 14 (Homo sapiens, UniProt O00487); assay: inhibition of proteasome subunit RPN11 – biochemical, fluorescence polarization, uHTS hits, confirmation (AID 602368); assay type: functional
26S proteasome non-ATPase regulatory subunit 14, sequence (O00487 whole entry): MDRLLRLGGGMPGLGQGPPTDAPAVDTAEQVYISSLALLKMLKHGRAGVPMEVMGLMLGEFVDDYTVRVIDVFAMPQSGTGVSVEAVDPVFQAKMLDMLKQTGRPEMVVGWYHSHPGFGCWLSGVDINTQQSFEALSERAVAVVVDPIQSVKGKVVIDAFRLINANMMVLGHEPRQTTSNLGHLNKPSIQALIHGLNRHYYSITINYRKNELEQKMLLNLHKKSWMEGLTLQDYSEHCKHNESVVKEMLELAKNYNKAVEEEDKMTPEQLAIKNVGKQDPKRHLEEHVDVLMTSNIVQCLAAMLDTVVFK

[12] = general mammalian cell viability loss – inhibitor set, cherry-pick, set 2, cytotoxicity control for miR-122 modulator project, dose response (AID 720697); assay type: functional, cell-based
[13] = activation of miR-122 Renilla sensor silencing – cell-based, Huh7 psiCHECK-miR122, Renilla luciferase, cherry-picked, dose response (AID 651956); assay type: functional;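 further: huh7 hepatoma cells stably carrying a psiCHECK-2 miR-122 sensor plasmid; renilla luciferase signal reporting endogenous miR-122 activity after 48 h compound exposure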
Kallikrein-7 = Kallikrein-7 (Homo sapiens, UniProt P49862); assay: Fluorescence Intensity-based biochemical primary high throughput dose response assay to identify activators of kallikrein-7 (K7) zymogen.
Kallikrein-7, sequence (P49862 whole entry, the tested form may be a part): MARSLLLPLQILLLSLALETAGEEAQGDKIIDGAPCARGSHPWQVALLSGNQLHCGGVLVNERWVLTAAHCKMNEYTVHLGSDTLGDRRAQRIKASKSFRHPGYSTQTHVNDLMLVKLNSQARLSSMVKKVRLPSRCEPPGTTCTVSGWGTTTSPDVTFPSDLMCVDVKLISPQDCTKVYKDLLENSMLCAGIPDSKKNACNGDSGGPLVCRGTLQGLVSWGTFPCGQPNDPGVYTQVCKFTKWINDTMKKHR

[14] = off-target signal loss in HeLa-CEM21 co-culture – HeLa F-luc CTL cells, cherry-picked, counter-screen for HIV-1 Env fusion inhibitor project, dose response (AID 652040); assay type: functional, cell-based;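 further: potency for signal decrease marking cytotoxic or nonspecific inhibition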
[15] = general cell-killing toxicity readout – plate reader, dry powder samples, cytotoxicity control for PAX8 inhibitor project, dose response (AID 743021); assay type: functional, cell-based
[16] = blockers of HIV-1 envelope-mediated cell-cell fusion – cherry-pick, dose response (AID 652057); assay type: functional, cell-based
Paired box protein Pax-8 = Paired box protein Pax-8 (Homo sapiens, UniProt Q06710); assay: PAX8 transcriptional activity inhibition in RMG-I – RMG-I cells, luciferase, cherry-pick, dose response (AID 687027); assay type: functional, cell-based;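 further: luciferase reporter driven by Pax8 target thyroperoxidase promoter measured by SteadyGlo luminescence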
Paired box protein Pax-8, sequence (Q06710 whole entry, the tested form may be a part): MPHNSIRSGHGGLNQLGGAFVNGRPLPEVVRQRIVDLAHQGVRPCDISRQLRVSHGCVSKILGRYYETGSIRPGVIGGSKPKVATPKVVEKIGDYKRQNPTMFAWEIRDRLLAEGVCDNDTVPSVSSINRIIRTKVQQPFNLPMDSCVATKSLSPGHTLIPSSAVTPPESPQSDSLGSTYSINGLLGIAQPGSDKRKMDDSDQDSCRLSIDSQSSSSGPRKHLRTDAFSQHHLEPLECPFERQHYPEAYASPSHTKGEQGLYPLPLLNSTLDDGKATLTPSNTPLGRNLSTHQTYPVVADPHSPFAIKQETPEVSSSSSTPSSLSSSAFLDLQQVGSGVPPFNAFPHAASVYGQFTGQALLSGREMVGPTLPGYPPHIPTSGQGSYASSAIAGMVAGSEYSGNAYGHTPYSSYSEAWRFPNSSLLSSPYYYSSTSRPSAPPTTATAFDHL

[17] = viability loss in CEM21 cells – cell-based, CellTiter-Glo luminescence, cherry-picked, cytotoxicity control for viral fusion inhibitor project, dose response (AID 652042); assay type: functional;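 further: potency for signal decrease meaning cytotoxicity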
[18] = HIV-1 AD8 envelope cell-cell fusion blockers – cherry-pick, dose response (AID 652062); assay type: functional, cell-based;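 further: luciferase signal from cell-cell fusion driven by HIV-1 clade B AD8 Env; potency is for inhibitors of fusion seen as a drop in luminescence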
[19] = blockers of HIV-1 ZM109 envelope-driven cell-cell fusion – HeLa effector, CEM target cells, luciferase, cherry-pick, dose response (AID 652058); assay type: functional, cell-based;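 further: luciferase signal from HIV-1 Env mediated cell-cell fusion of effector and target cells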
Protein skinhead-1 = target: T2, Protein skinhead-1 (Caenorhabditis elegans, UniProt P34707); assay type: functional
T2 sequence (P34707 whole entry): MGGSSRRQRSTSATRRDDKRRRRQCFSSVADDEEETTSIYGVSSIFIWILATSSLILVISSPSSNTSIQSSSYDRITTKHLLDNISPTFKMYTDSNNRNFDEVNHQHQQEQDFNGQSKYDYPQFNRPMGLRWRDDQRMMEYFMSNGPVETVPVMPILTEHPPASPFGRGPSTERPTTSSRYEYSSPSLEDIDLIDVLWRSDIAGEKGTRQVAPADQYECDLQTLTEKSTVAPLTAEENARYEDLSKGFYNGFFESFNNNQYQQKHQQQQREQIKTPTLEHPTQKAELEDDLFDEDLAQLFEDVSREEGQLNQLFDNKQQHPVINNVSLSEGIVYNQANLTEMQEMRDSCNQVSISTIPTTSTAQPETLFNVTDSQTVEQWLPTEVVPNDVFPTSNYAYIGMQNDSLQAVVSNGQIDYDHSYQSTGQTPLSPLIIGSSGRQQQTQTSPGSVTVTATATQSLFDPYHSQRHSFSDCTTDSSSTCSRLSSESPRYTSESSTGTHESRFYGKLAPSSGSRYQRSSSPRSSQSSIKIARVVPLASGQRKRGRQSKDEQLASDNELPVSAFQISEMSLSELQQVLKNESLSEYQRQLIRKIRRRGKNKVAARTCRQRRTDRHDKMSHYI

SMILES: COc1ccc(-c2csc(NC(=O)C3CCN(c4ncnc5sc(C)c(C)c45)CC3)n2)cc1OC
AC50 [1]: 0.857 µM (active)
AC50 [2]: 1.42 µM (active)
EC50 [3]: 1.37 µM (active)
EC50 [4]: > 60 µM (not active)
AC50 (INS1): 3.6 µM (active)
IC50 [5]: 3.82 µM (active)
AC50 [6]: 1.86 µM (active)
IC50 [7]: > 80 µM (inactive)

SMILES: O=C(N/N=C/c1sc(N2CCOCC2)nc1-c1ccccc1)c1cccc(S(=O)(=O)N2CCCC2)c1
IC50 [8]: > 100 µM (inactive)
IC50 (Prothrombin): 24.5 µM (active)
AC50 (INS1): 2.44 µM (active)
EC50 [9]: 49.2 µM (active)
EC50 [10]: 3.31 µM (active)
IC50 [11]: 19.6 µM (active)

SMILES: CNC(=O)C[C@H]1CC[C@@H]2[C@H](COc3ccc(NC(=O)C(C)C)cc3C(=O)N2C)O1
AC50 [12]: 9.62 µM (active)

SMILES: CCOc1ccc2nc(NS(=O)(=O)c3cccs3)sc2c1
AC50 [12]: 1.99 µM (active)
AC50 [13]: 6.98 µM (active)

EC50 (Kallikrein-7): 9.54 µM (active)
SMILES: N#C/C(=C/c1ccc(-c2ccc(S(N)(=O)=O)cc2)o1)C(=O)Nc1ccccc1

SMILES: CC(=NNc1ccc2ccccc2n1)c1ccccn1
AC50 [14]: 8.41 µM (active)
AC50 [15]: 59.5 µM (active)
AC50 [16]: 3.13 µM (active)
AC50 (Paired box protein Pax-8): 2.27 µM (active)
AC50 [17]: 0.399 µM (active)
AC50 [18]: 5 µM (active)
AC50 [19]: 10.7 µM (active)

IC50 [8]: > 100 µM (inactive)
IC50 (Prothrombin): 32.4 µM (active)
IC50 (Protein skinhead-1): > 100 µM (inactive)
IC50 [11]: 13.9 µM (active)
SMILES: Cn1c2ccccc2c2cc(C(=O)OCC(=O)N3CC(=O)Nc4ccccc43)sc21
